In US11076594B2, “Pyrazolone compound or salt thereof, preparation method therefor, herbicide composition and use thereof” (QINGDAO KINGAGROOT CHEMICAL COMPOUNDS CO., LTD., priority 2015, dated 2021):

Legend:
Assay type in all cases: in vivo
Settings in all cases: post-emergence spray at 4-5 leaf stage, 250 g/ha active ingredient with 450 kg/ha water, rated after 3 weeks in greenhouse
[1] = test system: rice; assay: post-emergence stage experiment, crop (Table 1)
Method: (§1) The activity level standard of harmful plant destruction (i.e. growth control rate) is as follows: The above described growth control rate is fresh weight control rate. Monocotyledonous and dicotyledonous weed seeds and main crop seeds (i.e. wheat, corn, rice, soybean, cotton, oilseed, millet and sorghum.) were put into a plastic pot loaded with soil. Then covered with 0.5-2 cm soil, the seeds were allowed to grow in good greenhouse environment. The test plants were treated at 4-5 leaf stage 2-3 weeks after sowing. The test compounds of the invention were dissolved with acetone respectively, then added with 80 tween and diluted by certain amount of water to certain concentration. The solution was sprayed to the plants with a sprayer. Then the plants were cultured for 3 weeks in the greenhouse.

[2] = test system: bidens bipinnata; assay: weed control effect in post-emergence stage (Table 1); parameters: key: Level 10: completely dead; Level 9: above 95% growth control rate; Level 8: above 90% growth control rate; Level 7: above 80% growth control rate; Level 6: above 70% growth control rate; Level 5: above 60% growth control rate; Level 4: above 50% growth control rate; Level 3: above 20% growth control rate; Level 2: 5%-20% growth control rate; Level 1: below 5% growth control rate
Method: as §1

[3] = test system: Indian mallow; assay: as above; parameters: key: Level 10: completely dead; Level 9: above 95% growth control rate; Level 8: above 90% growth control rate; Level 7: above 80% growth control rate; Level 6: above 70% growth control rate; Level 5: above 60% growth control rate; Level 4: above 50% growth control rate; Level 3: above 20% growth control rate; Level 2: 5%-20% growth control rate; Level 1: below 5% growth control rate
Method: as §1

[4] = test system: foxtail; assay: as above; parameters: key: Level 10: completely dead; Level 9: above 95% growth control rate; Level 8: above 90% growth control rate; Level 7: above 80% growth control rate; Level 6: above 70% growth control rate; Level 5: above 60% growth control rate; Level 4: above 50% growth control rate; Level 3: above 20% growth control rate; Level 2: 5%-20% growth control rate; Level 1: below 5% growth control rate
Method: as §1

[5] = test system: echinochloa; assay: as above; parameters: key: Level 10: completely dead; Level 9: above 95% growth control rate; Level 8: above 90% growth control rate; Level 7: above 80% growth control rate; Level 6: above 70% growth control rate; Level 5: above 60% growth control rate; Level 4: above 50% growth control rate; Level 3: above 20% growth control rate; Level 2: 5%-20% growth control rate; Level 1: below 5% growth control rate
Method: as §1

[6] = test system: crab grass; assay: as above; parameters: key: Level 10: completely dead; Level 9: above 95% growth control rate; Level 8: above 90% growth control rate; Level 7: above 80% growth control rate; Level 6: above 70% growth control rate; Level 5: above 60% growth control rate; Level 4: above 50% growth control rate; Level 3: above 20% growth control rate; Level 2: 5%-20% growth control rate; Level 1: below 5% growth control rate
Method: as §1

[7] = test system: rorippa indica; assay: as above; parameters: key: Level 10: completely dead; Level 9: above 95% growth control rate; Level 8: above 90% growth control rate; Level 7: above 80% growth control rate; Level 6: above 70% growth control rate; Level 5: above 60% growth control rate; Level 4: above 50% growth control rate; Level 3: above 20% growth control rate; Level 2: 5%-20% growth control rate; Level 1: below 5% growth control rate
Method: as §1

[8] = test system: wheat; assay: post-emergence stage experiment, crop (Table 1)
Method: as §1

[9] = test system: corn; assay: post-emergence stage experiment, crop (Table 1)
Method: as §1

SMILES	effect on crop, Rice (level) [1]	weed control effect, Bidens bipinnata (level) [2]	weed control effect, Indian mallow (level) [3]	weed control effect, Green foxtail (level) [4]	weed control effect, Echinochloa (level) [5]	weed control effect, Crab grass (level) [6]	weed control effect, Rorippa indica (level) [7]	effect on crop, Wheat (level) [8]	effect on crop, Corn (level) [9]
Cn1ncc(C(=O)c2ccc(C(F)(F)F)c(N3CCCC3=O)c2Cl)c1O [Compound 014]	3 (Level 3: above 20% growth control rate)	8 (Level 8: above 90% growth control rate)	7 (Level 7: above 80% growth control rate)	10	5 (Level 5: above 60% growth control rate)	10	10	3 (Level 3: above 20% growth control rate)	8 (Level 8: above 90% growth control rate)
CCOc1c(C(=O)Oc2c(C(=O)c3ccc(C(F)(F)F)c(N4CCCC4=O)c3Cl)cnn2C)cnn1C [Compound 015]	2 (Level 2: 5%-20% growth control rate)	8 (Level 8: above 90% growth control rate)	8 (Level 8: above 90% growth control rate)	10	5 (Level 5: above 60% growth control rate)	9 (Level 9: above 95% growth control rate)	9 (Level 9: above 95% growth control rate)	2 (Level 2: 5%-20% growth control rate)	9 (Level 9: above 95% growth control rate)
Cc1nn(C)cc1C(=O)Oc1c(C(=O)c2ccc(C(F)(F)F)c(N3CCCC3=O)c2Cl)cnn1C [Compound 016]	4 (Level 4: above 50% growth control rate)	5 (Level 5: above 60% growth control rate)	10	10	10	10	10	3 (Level 3: above 20% growth control rate)	3 (Level 3: above 20% growth control rate)
Cn1ncc(C(=O)c2ccc(C(F)(F)F)c(N3CCCCC3=O)c2Cl)c1O [Compound 029]	1 (Level 1: below 5% growth control rate)	7 (Level 7: above 80% growth control rate)	7 (Level 7: above 80% growth control rate)	9 (Level 9: above 95% growth control rate)	5 (Level 5: above 60% growth control rate)	7 (Level 7: above 80% growth control rate)	7 (Level 7: above 80% growth control rate)	3 (Level 3: above 20% growth control rate)	7 (Level 7: above 80% growth control rate)
CC(=O)Oc1c(C(=O)c2ccc(C(F)(F)F)c(N3CCCCC3=O)c2Cl)cnn1C [Compound 030]	1 (Level 1: below 5% growth control rate)	5 (Level 5: above 60% growth control rate)	6 (Level 6: above 70% growth control rate)	9 (Level 9: above 95% growth control rate)	5 (Level 5: above 60% growth control rate)	8 (Level 8: above 90% growth control rate)	10	4 (Level 4: above 50% growth control rate)	9 (Level 9: above 95% growth control rate)
CCS(=O)(=O)Oc1c(C(=O)c2ccc(C(F)(F)F)c(N3CCCCC3=O)c2Cl)cnn1C [Compound 031]	1 (Level 1: below 5% growth control rate)	6 (Level 6: above 70% growth control rate)	7 (Level 7: above 80% growth control rate)	10	5 (Level 5: above 60% growth control rate)	9 (Level 9: above 95% growth control rate)	8 (Level 8: above 90% growth control rate)	3 (Level 3: above 20% growth control rate)	9 (Level 9: above 95% growth control rate)
CCOc1c(C(=O)Oc2c(C(=O)c3ccc(C(F)(F)F)c(N4CCCCC4=O)c3Cl)cnn2C)cnn1C [Compound 032]	8 (Level 8: above 90% growth control rate)	6 (Level 6: above 70% growth control rate)	10	10	9 (Level 9: above 95% growth control rate)	10	10	1 (Level 1: below 5% growth control rate)	4 (Level 4: above 50% growth control rate)
Cc1nn(C)c(OC(=O)c2cnn(C)c2)c1C(=O)c1ccc(C(F)(F)F)c(N2CCCCC2=O)c1Cl [Compound 039]	6 (Level 6: above 70% growth control rate)	2 (Level 2: 5%-20% growth control rate)	10	10	10	9 (Level 9: above 95% growth control rate)	10	–	2 (Level 2: 5%-20% growth control rate)
Cc1cnn(-c2c(C(F)(F)F)ccc(C(=O)c3c(C4CC4)nn(C)c3OC(=O)c3cnn(C)c3)c2Cl)c1 [Compound 091]	6 (Level 6: above 70% growth control rate)	5 (Level 5: above 60% growth control rate)	10	7 (Level 7: above 80% growth control rate)	6 (Level 6: above 70% growth control rate)	2 (Level 2: 5%-20% growth control rate)	–	1 (Level 1: below 5% growth control rate)	1 (Level 1: below 5% growth control rate)
